Experimental data published in ChEMBL document CHEMBL1145374, “Discovery of para-alkylthiophenoxyacetic acids as a novel series of potent and selective PPARdelta agonists” (Bioorg Med Chem Lett, 2007).

test system: not listed separately; experiment: Oral bioavailability in rat; type: ADME, organism-based; details: in vivo

Row | SMILES | bioavailability [%]
1 | CC[C@H](COc1ccc(C(F)(F)F)cc1)CSc1ccc(OCC(=O)O)c(C)c1 | 84

test system: not listed separately; experiment: Tmax in rat; type: ADME, organism-based; details: in vivo

Row | SMILES | Tmax [h]
2 | CC[C@H](COc1ccc(C(F)(F)F)cc1)CSc1ccc(OCC(=O)O)c(C)c1 | 0.5

test system: not listed separately; experiment: Half life in rat; type: ADME, organism-based; details: in vivo

Row | SMILES | half-life [h]
3 | CC[C@H](COc1ccc(C(F)(F)F)cc1)CSc1ccc(OCC(=O)O)c(C)c1 | 8.2

molecular target: T1, Peroxisome proliferator-activated receptor alpha (Homo sapiens, UniProt Q07869); experiment: Activity at human PPARalpha receptor by cell based transactivation assay; details: not given
T1 sequence (Q07869 whole entry): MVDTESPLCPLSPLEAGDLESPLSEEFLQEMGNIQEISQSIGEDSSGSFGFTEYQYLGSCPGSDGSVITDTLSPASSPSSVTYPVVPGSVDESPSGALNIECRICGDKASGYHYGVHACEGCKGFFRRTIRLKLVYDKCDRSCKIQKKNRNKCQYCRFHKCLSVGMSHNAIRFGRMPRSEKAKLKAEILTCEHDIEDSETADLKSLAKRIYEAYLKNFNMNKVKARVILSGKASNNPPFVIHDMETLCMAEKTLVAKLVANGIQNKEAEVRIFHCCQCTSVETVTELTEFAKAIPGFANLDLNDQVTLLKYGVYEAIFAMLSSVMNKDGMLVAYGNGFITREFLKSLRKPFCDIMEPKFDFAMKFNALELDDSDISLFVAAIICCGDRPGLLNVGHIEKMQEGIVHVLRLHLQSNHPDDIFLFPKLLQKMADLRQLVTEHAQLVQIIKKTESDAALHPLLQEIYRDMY

Row | SMILES | EC50 [nM]
4 | CCOC(COc1ccc(C(F)(F)F)cc1)CSc1ccc(OCC(=O)O)c(C)c1 (stereo not given) | > 1000
5 | CCC(COc1ccc(C(F)(F)F)cc1)CSc1ccc(OCC(=O)O)c(C)c1 (stereo not given) | > 1000
6 | CCO[C@H](COc1ccc(C(F)(F)F)cc1)CSc1ccc(OCC(=O)O)c(C)c1 | > 1000
7 | CCOC(CCc1ccc(C(F)(F)F)cc1)CSc1ccc(OCC(=O)O)c(C)c1 (stereo not given) | > 1000
8 | CCOC(COc1ccc(C(F)(F)F)cc1)COc1ccc(OCC(=O)O)c(C)c1 (stereo not given) | > 1000
9 | CCCCOC(COc1ccc(C(F)(F)F)cc1)CSc1ccc(OCC(=O)O)c(C)c1 (stereo not given) | > 1000
10 | C=CCOC(COc1ccc(C(F)(F)F)cc1)CSc1ccc(OCC(=O)O)c(C)c1 (stereo not given) | > 1000
11 | CCO[C@H](COc1ccc(C(F)(F)F)cc1)C[S+]([O-])c1ccc(OCC(=O)O)c(C)c1 (stereo not given in full) | > 1000
12 | COC(COc1ccc(C(F)(F)F)cc1)CSc1ccc(OCC(=O)O)c(C)c1 (stereo not given) | > 1000
13 | Cc1cc(SCC(COc2ccc(C(F)(F)F)cc2)OCc2ccccc2)ccc1OCC(=O)O (stereo not given) | > 1000
14 | COCO[C@H](COc1ccc(C(F)(F)F)cc1)CSc1ccc(OCC(=O)O)c(C)c1 | > 1000
15 | COCO[C@@H](COc1ccc(C(F)(F)F)cc1)CSc1ccc(OCC(=O)O)c(C)c1 | > 1000
16 | CCCC(=O)c1ccc(OC(COc2ccc(C(F)(F)F)cc2)CSc2ccc(OCC(=O)O)c(C)c2)cc1 (stereo not given) | > 1000
17 | CCOCC(COc1ccc(C(F)(F)F)cc1)CSc1ccc(OCC(=O)O)c(C)c1 (stereo not given) | > 1000
18 | Cc1cc(SCC(COc2ccc(C(F)(F)F)cc2)COc2ccc(C(F)(F)F)cc2)ccc1OCC(=O)O | > 1000
19 | CCO[C@@H](COc1ccc(C(F)(F)F)cc1)CSc1ccc(OCC(=O)O)c(C)c1 | > 1000
20 | CCCOC(COc1ccc(C(F)(F)F)cc1)CSc1ccc(OCC(=O)O)c(C)c1 (stereo not given) | > 1000
21 | Cc1cc(SCC(C)COc2ccc(C(F)(F)F)cc2)ccc1OCC(=O)O (stereo not given) | > 1000
22 | CC[C@H](COc1ccc(C(F)(F)F)cc1)CSc1ccc(OCC(=O)O)c(C)c1 | > 1000
23 | CSCOC(CCc1ccc(C(F)(F)F)cc1)CSc1ccc(OCC(=O)O)c(C)c1 (stereo not given) | > 1000
24 | COCOC(COc1ccc(C(F)(F)F)cc1)CSc1ccc(OCC(=O)O)c(C)c1 (stereo not given) | > 1000
25 | Cc1cc(SCC(COc2ccc(C(F)(F)F)cc2)OCC(=O)O)ccc1OCC(=O)O (stereo not given) | > 1000
26 | COc1ccc(OC(COc2ccc(C(F)(F)F)cc2)CSc2ccc(OCC(=O)O)c(C)c2)cc1 (stereo not given) | > 1000
27 | Cc1cc(SCC(O)COc2ccc(C(F)(F)F)cc2)ccc1OCC(=O)O (stereo not given) | > 1000

test system: not listed separately; experiment: AUC in rat; type: ADME, organism-based; details: plasma

Row | SMILES | AUC [ng·h/mL]
28 | CC[C@H](COc1ccc(C(F)(F)F)cc1)CSc1ccc(OCC(=O)O)c(C)c1 | 13600

test system: not listed separately; experiment: Cmax in rat; type: ADME, organism-based; details: in vivo

Row | SMILES | Cmax [ng/mL]
29 | CC[C@H](COc1ccc(C(F)(F)F)cc1)CSc1ccc(OCC(=O)O)c(C)c1 | 8870

molecular target: T2, Peroxisome proliferator-activated receptor delta (Homo sapiens, UniProt Q03181); experiment: Agonist activity at human PPARdelta receptor by cell based transactivation assay; type: functional; details: not given
T2 sequence (Q03181 whole entry): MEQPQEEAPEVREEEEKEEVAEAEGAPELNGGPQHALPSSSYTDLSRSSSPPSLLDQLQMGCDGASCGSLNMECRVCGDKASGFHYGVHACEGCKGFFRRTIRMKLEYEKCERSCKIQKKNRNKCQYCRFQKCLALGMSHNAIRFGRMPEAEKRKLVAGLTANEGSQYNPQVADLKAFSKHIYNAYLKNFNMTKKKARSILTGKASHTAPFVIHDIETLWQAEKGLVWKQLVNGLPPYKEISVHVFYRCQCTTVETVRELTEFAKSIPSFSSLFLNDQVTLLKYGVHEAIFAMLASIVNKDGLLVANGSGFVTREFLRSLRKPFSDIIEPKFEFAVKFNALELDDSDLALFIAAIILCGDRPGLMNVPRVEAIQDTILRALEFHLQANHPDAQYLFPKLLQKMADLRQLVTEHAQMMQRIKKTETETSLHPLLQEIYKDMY

Row | SMILES | EC50 [nM]
30 | CCOC(COc1ccc(C(F)(F)F)cc1)CSc1ccc(OCC(=O)O)c(C)c1 (stereo not given) | 3.4
31 | CCC(COc1ccc(C(F)(F)F)cc1)CSc1ccc(OCC(=O)O)c(C)c1 (stereo not given) | 0.06
32 | CCO[C@H](COc1ccc(C(F)(F)F)cc1)CSc1ccc(OCC(=O)O)c(C)c1 | 1.9
33 | CCCCOC(COc1ccc(C(F)(F)F)cc1)CSc1ccc(OCC(=O)O)c(C)c1 (stereo not given) | 7
34 | C=CCOC(COc1ccc(C(F)(F)F)cc1)CSc1ccc(OCC(=O)O)c(C)c1 (stereo not given) | 3.9
35 | CCO[C@H](COc1ccc(C(F)(F)F)cc1)C[S+]([O-])c1ccc(OCC(=O)O)c(C)c1 (stereo not given in full) | > 3000
36 | COC(COc1ccc(C(F)(F)F)cc1)CSc1ccc(OCC(=O)O)c(C)c1 (stereo not given) | 18.8
37 | COCO[C@@H](COc1ccc(C(F)(F)F)cc1)CSc1ccc(OCC(=O)O)c(C)c1 | 70
38 | CCO[C@@H](COc1ccc(C(F)(F)F)cc1)CSc1ccc(OCC(=O)O)c(C)c1 | 25
39 | Cc1cc(SCC(C)COc2ccc(C(F)(F)F)cc2)ccc1OCC(=O)O (stereo not given) | 7.4
40 | CC[C@H](COc1ccc(C(F)(F)F)cc1)CSc1ccc(OCC(=O)O)c(C)c1 | 0.03
41 | CSCOC(CCc1ccc(C(F)(F)F)cc1)CSc1ccc(OCC(=O)O)c(C)c1 (stereo not given) | 15.2

molecular target: T3, Peroxisome proliferator-activated receptor gamma (Homo sapiens, UniProt P37231); experiment: Activity at human PPARgamma receptor by cell based transactivation assay; details: not given
T3 sequence (P37231 whole entry): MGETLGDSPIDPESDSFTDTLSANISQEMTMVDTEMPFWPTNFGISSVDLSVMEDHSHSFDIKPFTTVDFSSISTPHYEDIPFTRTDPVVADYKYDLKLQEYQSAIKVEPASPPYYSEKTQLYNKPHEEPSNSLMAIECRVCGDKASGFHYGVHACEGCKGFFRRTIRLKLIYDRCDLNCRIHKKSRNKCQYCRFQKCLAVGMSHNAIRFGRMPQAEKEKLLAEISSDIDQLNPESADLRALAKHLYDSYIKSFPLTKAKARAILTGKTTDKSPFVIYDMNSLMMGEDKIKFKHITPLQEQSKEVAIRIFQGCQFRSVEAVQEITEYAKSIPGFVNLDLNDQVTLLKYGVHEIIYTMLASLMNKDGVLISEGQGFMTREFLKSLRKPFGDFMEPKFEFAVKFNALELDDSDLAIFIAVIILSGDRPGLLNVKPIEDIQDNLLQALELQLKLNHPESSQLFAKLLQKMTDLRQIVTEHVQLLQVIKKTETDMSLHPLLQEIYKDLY

Row | SMILES | EC50 [nM]
42 | CCOC(COc1ccc(C(F)(F)F)cc1)CSc1ccc(OCC(=O)O)c(C)c1 (stereo not given) | > 1000
43 | CCC(COc1ccc(C(F)(F)F)cc1)CSc1ccc(OCC(=O)O)c(C)c1 (stereo not given) | > 1000
44 | CCO[C@H](COc1ccc(C(F)(F)F)cc1)CSc1ccc(OCC(=O)O)c(C)c1 | > 1000
45 | CCOC(CCc1ccc(C(F)(F)F)cc1)CSc1ccc(OCC(=O)O)c(C)c1 (stereo not given) | > 1000
46 | CCOC(COc1ccc(C(F)(F)F)cc1)COc1ccc(OCC(=O)O)c(C)c1 (stereo not given) | > 1000
47 | CCCCOC(COc1ccc(C(F)(F)F)cc1)CSc1ccc(OCC(=O)O)c(C)c1 (stereo not given) | > 1000
48 | C=CCOC(COc1ccc(C(F)(F)F)cc1)CSc1ccc(OCC(=O)O)c(C)c1 (stereo not given) | > 1000
49 | CCO[C@H](COc1ccc(C(F)(F)F)cc1)C[S+]([O-])c1ccc(OCC(=O)O)c(C)c1 (stereo not given in full) | > 1000
50 | COC(COc1ccc(C(F)(F)F)cc1)CSc1ccc(OCC(=O)O)c(C)c1 (stereo not given) | > 1000
51 | Cc1cc(SCC(COc2ccc(C(F)(F)F)cc2)OCc2ccccc2)ccc1OCC(=O)O (stereo not given) | > 1000
52 | COCO[C@H](COc1ccc(C(F)(F)F)cc1)CSc1ccc(OCC(=O)O)c(C)c1 | > 1000
53 | COCO[C@@H](COc1ccc(C(F)(F)F)cc1)CSc1ccc(OCC(=O)O)c(C)c1 | > 1000
54 | CCCC(=O)c1ccc(OC(COc2ccc(C(F)(F)F)cc2)CSc2ccc(OCC(=O)O)c(C)c2)cc1 (stereo not given) | > 1000
55 | CCOCC(COc1ccc(C(F)(F)F)cc1)CSc1ccc(OCC(=O)O)c(C)c1 (stereo not given) | > 1000
56 | Cc1cc(SCC(COc2ccc(C(F)(F)F)cc2)COc2ccc(C(F)(F)F)cc2)ccc1OCC(=O)O | > 1000
57 | CCO[C@@H](COc1ccc(C(F)(F)F)cc1)CSc1ccc(OCC(=O)O)c(C)c1 | > 1000
58 | CCCOC(COc1ccc(C(F)(F)F)cc1)CSc1ccc(OCC(=O)O)c(C)c1 (stereo not given) | > 1000
59 | Cc1cc(SCC(C)COc2ccc(C(F)(F)F)cc2)ccc1OCC(=O)O (stereo not given) | > 1000
60 | CC[C@H](COc1ccc(C(F)(F)F)cc1)CSc1ccc(OCC(=O)O)c(C)c1 | > 1000
61 | CSCOC(CCc1ccc(C(F)(F)F)cc1)CSc1ccc(OCC(=O)O)c(C)c1 (stereo not given) | > 1000
62 | COCOC(COc1ccc(C(F)(F)F)cc1)CSc1ccc(OCC(=O)O)c(C)c1 (stereo not given) | > 1000
63 | Cc1cc(SCC(COc2ccc(C(F)(F)F)cc2)OCC(=O)O)ccc1OCC(=O)O (stereo not given) | > 1000
64 | COc1ccc(OC(COc2ccc(C(F)(F)F)cc2)CSc2ccc(OCC(=O)O)c(C)c2)cc1 (stereo not given) | > 1000
65 | Cc1cc(SCC(O)COc2ccc(C(F)(F)F)cc2)ccc1OCC(=O)O (stereo not given) | > 1000
